From patent US20230365558A1, “TETRAHYDROISOQUINOLINE DERIVATIVE AND USE THEREOF” (MEDSHINE DISCOVERY INC., priority 2020, published 2023)
Like-named read-outs stand apart in the source and are kept apart here.

What was measured:
[1] = tested on: Z-138 non-Hodgkin's lymphoma cells; test: In vitro anti-proliferation assay of Z-138 cells (CellTiter-Glo, 6 days); format: cell-based, human; conditions: read-out: IC50 (nM), in vitro anti-proliferative activity on Z-138 tumor cells
Procedure: The plate was incubated at 37° C., CO2 and 100% relative humidity for 6 days. Samples were processed using Promega CellTiter-Glo Luminescent Cell Viability Assay Kit (Promega-G7571) standard method, and the luminescent signal was detected on a TECAN Spark®10M plate reader. Raw data were used to calculate the inhibition rate of the test compounds using the following equation: […]
(§1) The inhibition rates were imported into Excel separately to calculate the inhibition rates of compounds at different concentrations, and then XLfit software was used to plot inhibition curves and calculate relevant parameters, including minimum inhibition rate, maximum inhibition rate and IC50.

PRMT5 enzyme = PRMT5 enzyme (Homo sapiens (Human), UniProt O14744); test: PRMT5 enzyme inhibitory activity assay (LANCE Ultra TR-FRET); format: biochemical
Chain of PRMT5 enzyme (O14744 whole entry): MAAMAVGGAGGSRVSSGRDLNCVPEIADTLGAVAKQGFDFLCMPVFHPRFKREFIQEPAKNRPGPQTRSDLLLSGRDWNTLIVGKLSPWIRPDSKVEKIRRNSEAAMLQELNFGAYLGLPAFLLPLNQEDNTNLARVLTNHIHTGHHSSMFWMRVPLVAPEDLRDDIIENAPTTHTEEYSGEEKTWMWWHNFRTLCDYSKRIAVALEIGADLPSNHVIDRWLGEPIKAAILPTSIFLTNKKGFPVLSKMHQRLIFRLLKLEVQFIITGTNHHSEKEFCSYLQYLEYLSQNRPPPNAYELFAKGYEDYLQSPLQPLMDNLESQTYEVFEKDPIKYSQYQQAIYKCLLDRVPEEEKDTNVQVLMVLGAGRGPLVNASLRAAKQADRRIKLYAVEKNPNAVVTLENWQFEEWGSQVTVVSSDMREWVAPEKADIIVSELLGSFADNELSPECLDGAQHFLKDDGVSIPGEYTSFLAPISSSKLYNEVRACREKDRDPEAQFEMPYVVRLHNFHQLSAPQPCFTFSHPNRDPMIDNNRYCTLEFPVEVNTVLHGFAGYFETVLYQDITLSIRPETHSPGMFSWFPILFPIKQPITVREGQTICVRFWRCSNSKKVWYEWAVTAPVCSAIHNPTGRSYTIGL
Chain of PRMT5 enzyme (Q9BQA1 whole entry partner): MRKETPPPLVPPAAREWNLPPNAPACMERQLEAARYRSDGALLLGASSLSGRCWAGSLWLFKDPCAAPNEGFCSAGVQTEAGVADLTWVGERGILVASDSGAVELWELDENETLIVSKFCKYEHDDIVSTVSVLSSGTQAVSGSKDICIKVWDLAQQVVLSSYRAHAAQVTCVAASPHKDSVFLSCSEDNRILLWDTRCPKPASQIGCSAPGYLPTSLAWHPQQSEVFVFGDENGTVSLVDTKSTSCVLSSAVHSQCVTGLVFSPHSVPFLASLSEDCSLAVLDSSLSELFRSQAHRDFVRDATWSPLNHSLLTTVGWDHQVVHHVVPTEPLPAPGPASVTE
Procedure: Experimental objective: To test the inhibitory effect of compounds on PRMT5 enzyme activity
Experimental materials: PRMT5 enzyme
The plate was incubated at 25° C. for 30 min, then added with substrate, and reacted at 25° C. for 90 min. After 90 min, the detection reagent was added to the 384-well plate using PerkinElmer LANCE Ultra TR-FRET standard method to combine with the enzyme-substrate reaction product. […] Raw data were used to calculate the inhibition rate of the test compounds using the following equation: […]
as §1

[2] = Pharmacokinetic evaluation in CD-1 mice; conditions: CD-1 mice
Procedure: Experimental objective: To study the pharmacokinetic parameters of the compounds in CD-1 mice
Animal experimental design: Male CD-1 mice (28.08 to 29.01 g, 6 to 7 weeks old), purchased from Shanghai Family Planning Research Institute, n=2/group, 4 mice in total; blood collection time points (h): 0.083 (intravenous injection only), 0.25 (intragastric administration only), 0.5, 1, 2, 4, 8, 10 and 24; compound dose by tail vein injection: 1 mg/kg; single dose by intragastric administration: 5 mg/kg; intravenous and intragastric administration vehicles: 20% N,N-dimethylacetamide aqueous solution, 20% hydroxypropyl-β-cyclodextrin aqueous solution, 5% DMSO/50% PEG400/45% water for injection or 10% Solutol/30% PEG400/60% water for injection. All animals had free access to water during the experiment, fasted overnight before administration, and resumed food supply 4 hours after administration. The entire animal experiment complied with the Institutional Animal Care and Use Committee (IACUC) animal welfare.
Sample collection and storage: After administration, approximately 0.03 mL of blood was collected from the saphenous vein of the mouse at each time point into a pre-frozen commercial EDTA-K2 tube, and placed on wet ice until centrifugation. Blood samples were centrifuged at 4° C., 3,200 g for 10 min. Plasma was collected separately, transferred to a pre-labeled 96-well plate, fast frozen on dry ice, and stored at −70±10° C. until LC-MS/MS analysis.
Pre-treatment of plasma samples: 3 μL of unknown, standard curve, QC, diluted QC and single and double blank samples were taken and placed in 1.5 mL tubes, and 60 μL of internal standard solution (internal standard: Labetalol 100 ng/mL acetonitrile solution, double blank with the same volume of pure acetonitrile) was added. The samples were vortexed for at least 15 seconds, and centrifuged at 4° C., 12,000 g for 15 min. 50 μL of the supernatant was taken and placed on a clean 96-well plate, and 200 μL of 70% acetonitrile was added. The plate was vortex at 800 rpm for 10 min, and centrifuged at 4° C., 3,220 g for 5 min. 2.0 μL of the supernatant was taken for LC-MS/MS analysis. 10-fold sample dilution procedure: 2 μL of the sample was added to 18 μL of blank matrix; 2-fold sample dilution procedure: 2 μL of the sample was added to 2 μL of blank matrix. Plasma was processed in the same manner as undiluted samples. The linear range was 4.00 to 6000 nM. Plasma concentrations would be analyzed with Triple Quad 6500 Plus, and pharmacokinetic parameters would be calculated with Phoenix WinNonlin 6.3.

[3] = tested on: MDA-MB-468 human breast cancer cells; test: Anti-proliferative activity on MDA-MB-468 cells (CellTiter-Glo, 7 days); format: cell-based; conditions: read-out: IC50 (nM), in vitro anti-proliferative activity on MDA-MB-468 tumor cells
Procedure: CellTiter-Glo (chemiluminescent cell viability detection reagent, purchased from Promega).
MDA-MB-468 cells were planted in a white 384-well plate with 40 μL of cell suspension per well, which contained 1000 MDA-MB-468 cells. The cell plate was cultured in a CO2 incubator overnight. […] 78 μL of culture medium was added to a middle plate, and then 2 μL of gradient diluted compound per well was transferred to the middle plate according to the corresponding position. After being thoroughly mixed, 10 μL per well was transferred to the cell plate. […] The cell plate was cultured in a CO2 incubator for 7 days. Another cell plate was prepared, and the signal value was read on the day of administration as the maximum value (Max value in the equation below) to participate in data analysis. 10 μL of chemiluminescent cell viability detection reagent per well was added to the cell plate, and the plate was incubated at room temperature for 10 min to stabilize the luminescent signal. A multi-label analyzer was used for reading. After the incubation of the cell plate with the compound was completed, 10 μL of chemiluminescent cell viability detection reagent per well was added to the cell plate, and the plate was incubated at room temperature for 10 min to stabilize the luminescent signal. A multi-label analyzer was used for reading.

[4] = injection administration (1 mg/kg)

Compound: CCOC1CC2(C1)Oc1ccc(C(=O)NC[C@H](O)CN3CCc4ccccc4C3)cc1NC2=O (stereo partly shown) [Compound 22]
- IC50 [1]: 12 nM

Compound: COCCOC1CC2(C1)Oc1ccc(C(=O)NC[C@H](O)CN3CCc4ccccc4C3)cc1NC2=O (stereo partly shown) [Compound 23]
- IC50 (PRMT5 enzyme): 18 nM
- IC50 ([1]; Homo sapiens, Z-138, 144 h): 23 nM

Compound: COCCOC1CC2(C1)Oc1ccc(C(=O)NC[C@H](O)CN3CCc4ccccc4C3)cc1NC2=O (stereo partly shown) [Compound 24]
- IC50 (PRMT5 enzyme): 15 nM
- IC50 [1]: 22 nM

Compound: CC(C)OC1CC2(C1)Oc1ccc(C(=O)NC[C@H](O)CN3CCc4ccccc4C3)cc1NC2=O (stereo partly shown) [Compound 26]
- IC50 ([1]; Homo sapiens, Z-138, 144 h): 22 nM

Compound: O=C1CC2(C1)Oc1ccc(C(=O)NC[C@H](O)CN3CCc4ccccc4C3)cc1NC2=O [Compound 27]
- IC50 ([1]; Homo sapiens, Z-138, 144 h): 4 nM

Compound: O=C(NC[C@H](O)CN1CCc2ccccc2C1)c1ccc2c(c1)NC(=O)C1(CC(F)(F)C1)O2 [Compound 28]
- IC50 ([1]; Homo sapiens, Z-138, 144 h): 10 nM

Compound: O=C(NC[C@H](O)CN1CCc2ccccc2C1)c1cnc2c(c1)NC(=O)C1(CC(F)(F)C1)O2 [Compound 29]
- IC50 (PRMT5 enzyme): 16 nM
- IC50 [1]: 6 nM
- Clearance rate CL [2, 4]: 37.9 mL/min/kg
- Concentration integral AUC [2, 4]: 0.981 µM·h
- Half-life T1/2 [2, 4]: 35.4 min
- Bioavailability F ([2]; oral administration (5 mg/kg)): 8.99%
- Concentration integral AUC ([2]; oral administration (5 mg/kg)): 0.441 µM·h

Compound: O=C(NC[C@H](O)CN1CCc2ccccc2C1)c1cc2c(cc1F)OC1(CC1)C(=O)N2 [Compound 32]
- IC50 ([1]; Homo sapiens, Z-138, 144 h): 19 nM

Compound: O=C(NC[C@H](O)CN1CCc2ccccc2C1)c1ccc2c(c1)NC(=O)[C@@]1(CCOC1)O2 [Compound 35]
- IC50 (PRMT5 enzyme): 11 nM
- IC50 [1]: 22 nM

Compound: O=C(NC[C@H](O)CN1CCc2ccccc2C1)c1ccc2c(c1)NC(=O)[C@]1(CCOC1)O2 [Compound 36]
- IC50 (PRMT5 enzyme): 7 nM
- IC50 [1]: 7 nM
- Clearance rate CL [2, 4]: 66.3 mL/min/kg
- Concentration integral AUC [2, 4]: 0.576 µM·h
- Half-life T1/2 [2, 4]: 13.2 min
- Bioavailability F ([2]; oral administration (5 mg/kg)): 37.9%
- Concentration integral AUC ([2]; oral administration (5 mg/kg)): 1.092 µM·h

Compound: O=C(NC[C@H](O)CN1CCc2ccccc2C1)c1ccc2c(c1)NC(=O)C1(CS(=O)(=O)C1)O2 [Compound 37]
- IC50 (PRMT5 enzyme): 8 nM
- IC50 [1]: 8 nM

Compound: O=C(NC[C@H](O)CN1CCc2ccccc2C1)c1ccc2c(c1)NC(=O)C1(CSC1)O2 [Compound 38]
- IC50 ([1]; Homo sapiens, Z-138, 144 h): 18 nM

Compound: O=C(NC[C@H](O)CN1CCc2ccccc2C1)c1cnc2c(c1)NC(=O)C21CC1 [Compound 42]
- IC50 [1]: 53 nM

Compound: COc1cc2c(cc1C(=O)NC[C@H](O)CN1CCc3ccccc3C1)NC(=O)C1(CC1)O2 [Compound 47]
- IC50 (PRMT5 enzyme): 42 nM
- IC50 [1]: 66.8 nM

Compound: O=C(NC[C@H](O)CN1CCc2ccccc2C1)c1ccc2c(c1)NC(=O)[C@H]1C[C@@H]21 [Compound 49b]
- IC50 (PRMT5 enzyme): 26.2 nM
- IC50 [1]: 13.1 nM
- IC50 [3]: 4.2 nM
